Measured values reported in EP0233206B1, “SUGAR-[…] THEIR PHARMACEUTICAL USE” (priority 1985, dated 1987).

Legend:
[1] = tested on: mäusepathogenen Influenza-Viren; type: in vivo, NMRI-Mäusen; conditions: 20 NMRI mice, 500 µg each injected in 1 % Squalan-in-Wasser-Lösung, all saline controls died
immunkompetenten Zellen = experiment: Activity of immunocompetent cells of the treated animals; type: in vivo, NMRI-Mäusen; conditions: cells of the animals treated with 500 µg substance in 1 % Squalan-in-Wasser-Lösung

## COC(=O)CC[C@@H](NC(=O)CNC(=O)CO[C@@H]1[C@H]2OC(C)(C)O[C@H]2O[C@@H]1[C@H]1COC(C)(C)O1)C(=O)OC [Beispiel 1, N-[ (1,2:5,6-Di-0-isopropyliden-α-D-glucofuranos-30-yl)-acetyl]-glycyl-D-glutaminsäure-dimethylester]
[1]
  überlebten (Tiere): 80%
Immunkompetenten Zellen
  Aktivität der immunkompetenten Zellen: erhöhte Aktivität
